The results in this text go back to ChEMBL document CHEMBL3217717, “Synthesis and antiproliferative activity of novel erythromycin derivatives” (Medchemcomm, 2010).

Holding throughout (type): functional, cell-based
Assay [1] in a line: Cytotoxicity against human SGC7901 cells assessed as growth inhibition after 48 hrs by MTT assay. Conditions: SGC-7901, 48 h. A general note: Tetrazolium dyes change colour on reduction, which living cells bring about.
In assay [2] the test system is KB. Description: Cytotoxicity against human KB cells assessed as growth inhibition after 48 hrs by MTT assay.
Assay [3] in a line: Cytotoxicity against human HT1080 cells assessed as growth inhibition after 48 hrs by MTT assay. As to conditions: HT-1080, 48 h.

Structures are written as SMILES. pIC50: −log10 of the molar value.

For `CC[C@H]1OC(=O)[C@H](C)[C@@H](O[C@H]2C[C@@](C)(OC)[C@@H](O)[C@H](C)O2)[C@H](C)[C@@H](O[C@@H]2O[C@H](C)C[C@H](N(C)CCN(C)[C@H]3C[C@@H](C)O[C@@H](O[C@@H]4[C@@H](C)[C@H](O[C@H]5C[C@@](C)(OC)[C@@H](O)[C@H](C)O5)[C@@H](C)C(=O)O[C@H](CC)[C@@](C)(O)[C@H](O)[C@@H](C)C(=O)[C@H](C)C[C@@]4(C)OC)[C@@H]3O)[C@H]2O)[C@](C)(OC)C[C@@H](C)C(=O)[C@H](C)[C@@H](O)[C@]1(C)O`, the pIC50 in assay [1] is 4.70; in assay [2], 4.75; in assay [3], 5.09.

Consider `CC[C@H]1OC(=O)[C@H](C)[C@@H](O)[C@H](C)[C@@H](O[C@@H]2O[C@H](C)C[C@H](N(C)CCN(C)[C@H]3C[C@@H](C)O[C@@H](O[C@@H]4[C@@H](C)[C@H](O)[C@@H](C)C(=O)O[C@H](CC)[C@@](C)(O)[C@H](O)[C@@H](C)/C(=N\OCOCCOC)[C@H](C)C[C@@]4(C)O)[C@@H]3O)[C@H]2O)[C@](C)(O)C[C@@H](C)/C(=N/OCOCCOC)[C@H](C)[C@@H](O)[C@]1(C)O`, for which the negative-log IC50 (pIC50) in assay [1], in assay [2] and in assay [3] was less than 4.00 in each case.

For `CC[C@H]1OC(=O)[C@H](C)[C@@H](O[C@H]2C[C@@](C)(OC)[C@@H](O)[C@H](C)O2)[C@H](C)[C@@H](O[C@@H]2O[C@H](C)C[C@H](N(C)CC(=O)N(C)[C@H]3C[C@@H](C)O[C@@H](O[C@@H]4[C@@H](C)[C@H](O[C@H]5C[C@@](C)(OC)[C@@H](O)[C@H](C)O5)[C@@H](C)C(=O)O[C@H](CC)[C@@](C)(O)[C@H](O)[C@@H](C)/C(=N/OCOCCOC)[C@H](C)C[C@@]4(C)O)[C@@H]3O)[C@H]2O)[C@](C)(O)C[C@@H](C)/C(=N/OCOCCOC)[C@H](C)[C@@H](O)[C@]1(C)O`, the negative-log IC50 (pIC50) in assay [1] is 4.88; in assay [2], 4.54; in assay [3], 4.48.

For `CC[C@H]1OC(=O)[C@H](C)[C@@H](O[C@H]2C[C@@](C)(OC)[C@@H](O)[C@H](C)O2)[C@H](C)[C@@H](O[C@@H]2O[C@H](C)C[C@H](N(C)CC(=O)N(C)[C@H]3C[C@@H](C)O[C@@H](O[C@@H]4[C@@H](C)[C@H](O[C@H]5C[C@@](C)(OC)[C@@H](O)[C@H](C)O5)[C@@H](C)C(=O)O[C@H](CC)[C@@](C)(O)[C@H](O)[C@@H](C)C(=O)[C@H](C)C[C@@]4(C)OC)[C@@H]3O)[C@H]2O)[C@](C)(OC)C[C@@H](C)C(=O)[C@H](C)[C@@H](O)[C@]1(C)O`, the pIC50 in assay [1] was 4.79; in assay [2] it was less than 4.00; in assay [3], 4.51.

As for `CC[C@H]1OC(=O)[C@H](C)[C@@H](O[C@H]2C[C@@](C)(OC)[C@@H](O)[C@H](C)O2)[C@H](C)[C@@H](O[C@@H]2O[C@H](C)C[C@H](N(C)CCN(C)[C@H]3C[C@@H](C)O[C@@H](O[C@@H]4[C@@H](C)[C@H](O[C@H]5C[C@@](C)(OC)[C@@H](O)[C@H](C)O5)[C@@H](C)C(=O)O[C@H](CC)[C@@](C)(O)[C@H](O)[C@@H](C)/C(=N\OCc5cc(OC)c(OC)c(OC)c5)[C@H](C)C[C@@]4(C)O)[C@@H]3O)[C@H]2O)[C@](C)(OC)C[C@@H](C)C(=O)[C@H](C)[C@@H](O)[C@]1(C)O`, the negative-log IC50 (pIC50) in assay [1] is 4.76; in assay [2], 4.52; in assay [3], 4.38.

On to `CC[C@H]1OC(=O)[C@H](C)[C@@H](O[C@H]2C[C@@](C)(OC)[C@@H](O)[C@H](C)O2)[C@H](C)[C@@H](O[C@@H]2O[C@H](C)C[C@H](N(C)CCN(C)[C@H]3C[C@@H](C)O[C@@H](O[C@@H]4[C@@H](C)[C@H](O[C@H]5C[C@@](C)(OC)[C@@H](O)[C@H](C)O5)[C@@H](C)C(=O)O[C@H](CC)[C@@](C)(O)[C@H](O)[C@@H](C)/C(=N\OCOCCOC)[C@H](C)C[C@@]4(C)O)[C@@H]3O)[C@H]2O)[C@](C)(O)C[C@@H](C)/C(=N/OCOCCOC)[C@H](C)[C@@H](O)[C@]1(C)O`, for which the negative-log IC50 (pIC50) was less than 4.00 in assay [1], 5.26 in assay [2] and 5.46 in assay [3].

As for `CCCCCCCCO/N=C1/[C@H](C)C[C@@](C)(O)[C@H](O[C@@H]2O[C@H](C)C[C@H](N(C)CCN(C)[C@H]3C[C@@H](C)O[C@@H](O[C@@H]4[C@@H](C)[C@H](O[C@H]5C[C@@](C)(OC)[C@@H](O)[C@H](C)O5)[C@@H](C)C(=O)O[C@H](CC)[C@@](C)(O)[C@H](O)[C@@H](C)/C(=N\OCCCCCCCC)[C@H](C)C[C@@]4(C)O)[C@@H]3O)[C@H]2O)[C@@H](C)[C@H](O[C@H]2C[C@@](C)(OC)[C@@H](O)[C@H](C)O2)[C@@H](C)C(=O)O[C@H](CC)[C@@](C)(O)[C@H](O)[C@H]1C`, the negative logarithm of the IC50 (pIC50) in assay [1], in assay [2] and in assay [3] was less than 4.00 throughout.

Turning to `CC[C@H]1OC(=O)[C@H](C)[C@@H](O[C@H]2C[C@@](C)(OC)[C@@H](O)[C@H](C)O2)[C@H](C)[C@@H](O[C@@H]2O[C@H](C)C[C@H](N(C)CC(=O)N(C)[C@H]3C[C@@H](C)O[C@@H](O[C@@H]4[C@@H](C)[C@H](O[C@H]5C[C@@](C)(OC)[C@@H](O)[C@H](C)O5)[C@@H](C)C(=O)O[C@H](CC)[C@@](C)(O)[C@H](O)[C@@H](C)C(=O)[C@H](C)C[C@@]4(C)O)[C@@H]3O)[C@H]2O)[C@](C)(O)C[C@@H](C)C(=O)[C@H](C)[C@@H](O)[C@]1(C)O`, the figures for the pIC50 in assay [1], in assay [2] and in assay [3] were 4.58, less than 4.00 and less than 4.00, respectively.

Regarding `CC[C@H]1OC(=O)[C@H](C)[C@@H](O)[C@H](C)[C@@H](O[C@@H]2O[C@H](C)C[C@H](N(C)CCN(C)[C@H]3C[C@@H](C)O[C@@H](O[C@@H]4[C@@H](C)[C@H](O)[C@@H](C)C(=O)O[C@H](CC)[C@@](C)(O)[C@H](O)[C@@H](C)[C@@H](O)[C@H](C)C[C@@]4(C)O)[C@@H]3O)[C@H]2O)[C@](C)(O)C[C@@H](C)[C@H](O)[C@H](C)[C@@H](O)[C@]1(C)O`, the pIC50 in assay [1], in assay [2] and in assay [3] was less than 4.00 in each case.

On to `CC[C@H]1OC(=O)[C@H](C)[C@@H](O[C@H]2C[C@@](C)(OC)[C@@H](O)[C@H](C)O2)[C@H](C)[C@@H](O[C@@H]2O[C@H](C)C[C@H](N(C)CCN(C)[C@H]3C[C@@H](C)O[C@@H](O[C@@H]4[C@@H](C)[C@H](O[C@H]5C[C@@](C)(OC)[C@@H](O)[C@H](C)O5)[C@@H](C)C(=O)O[C@H](CC)[C@@](C)(O)[C@H](O)[C@@H](C)/C(=N\OCc5ccccc5)[C@H](C)C[C@@]4(C)OC)[C@@H]3O)[C@H]2O)[C@](C)(OC)C[C@@H](C)/C(=N/OCc2ccccc2)[C@H](C)[C@@H](O)[C@]1(C)O`, for which the pIC50 was 4.58 in assay [1], 5.12 in assay [2] and 5.02 in assay [3].

For `CCCCCO/N=C1/[C@H](C)C[C@@](C)(OC)[C@H](O[C@@H]2O[C@H](C)C[C@H](N(C)CCN(C)[C@H]3C[C@@H](C)O[C@@H](O[C@@H]4[C@@H](C)[C@H](O[C@H]5C[C@@](C)(OC)[C@@H](O)[C@H](C)O5)[C@@H](C)C(=O)O[C@H](CC)[C@@](C)(O)[C@H](O)[C@@H](C)/C(=N\OCCCCC)[C@H](C)C[C@@]4(C)OC)[C@@H]3O)[C@H]2O)[C@@H](C)[C@H](O[C@H]2C[C@@](C)(OC)[C@@H](O)[C@H](C)O2)[C@@H](C)C(=O)O[C@H](CC)[C@@](C)(O)[C@H](O)[C@H]1C`, the pIC50 was 4.51 in assay [1], less than 4.00 in assay [2] and 4.27 in assay [3].

For the compound `CC[C@H]1OC(=O)[C@H](C)[C@@H](O[C@H]2C[C@@](C)(OC)[C@@H](O)[C@H](C)O2)[C@H](C)[C@@H](O[C@@H]2O[C@H](C)C[C@H](N(C)CCN(C)[C@H]3C[C@@H](C)O[C@@H](O[C@@H]4[C@@H](C)[C@H](O[C@H]5C[C@@](C)(OC)[C@@H](O)[C@H](C)O5)[C@@H](C)C(=O)O[C@H](CC)[C@@](C)(O)[C@H](O)[C@@H](C)C(=O)[C@H](C)C[C@@]4(C)OC)[C@@H]3O)[C@H]2O)[C@](C)(O)C[C@@H](C)[C@H](O)[C@H](C)[C@@H](O)[C@]1(C)O`, the negative logarithm of the IC50 (pIC50) in assay [1] is 4.40; in assay [2] it was 4.55; in assay [3] it was 4.69.

For the compound `CC[C@H]1OC(=O)[C@H](C)[C@@H](O[C@H]2C[C@@](C)(OC)[C@@H](O)[C@H](C)O2)[C@H](C)[C@@H](O[C@@H]2O[C@H](C)C[C@H](N(C)CCN(C)[C@H]3C[C@@H](C)O[C@@H](O[C@@H]4[C@@H](C)[C@H](O[C@H]5C[C@@](C)(OC)[C@@H](O)[C@H](C)O5)[C@@H](C)C(=O)O[C@H](CC)[C@@](C)(O)[C@H](O)[C@@H](C)C(=O)[C@H](C)C[C@@]4(C)O)[C@@H]3O)[C@H]2O)[C@](C)(O)C[C@@H](C)C(=O)[C@H](C)[C@@H](O)[C@]1(C)O`, the pIC50 in assay [1] was 4.74; in assay [2], 4.43; in assay [3], less than 4.00.

`CC[C@H]1OC(=O)[C@H](C)[C@@H](O[C@H]2C[C@@](C)(OC)[C@@H](O)[C@H](C)O2)[C@H](C)[C@@H](O[C@@H]2O[C@H](C)C[C@H](N(C)CCN(C)[C@H]3C[C@@H](C)O[C@@H](O[C@@H]4[C@@H](C)[C@H](O[C@H]5C[C@@](C)(OC)[C@@H](O)[C@H](C)O5)[C@@H](C)C(=O)O[C@H](CC)[C@@](C)(O)[C@H](O)[C@@H](C)/C(=N\OCOCCOC)[C@H](C)C[C@@]4(C)O)[C@@H]3O)[C@H]2O)[C@](C)(O)C[C@@H](C)[C@H](O)[C@H](C)[C@@H](O)[C@]1(C)O`: the pIC50 in assay [1] is 4.34; in assay [2], 4.42; in assay [3], 4.66.

For the compound `CC[C@H]1OC(=O)[C@H](C)[C@@H](O)[C@H](C)[C@@H](O[C@@H]2O[C@H](C)C[C@H](N(C)CCN(C)[C@H]3C[C@@H](C)O[C@@H](O[C@@H]4[C@@H](C)[C@H](O[C@H]5C[C@@](C)(OC)[C@@H](O)[C@H](C)O5)[C@@H](C)C(=O)O[C@H](CC)[C@@](C)(O)[C@H](O)[C@@H](C)/C(=N\O)[C@H](C)C[C@@]4(C)OC)[C@@H]3O)[C@H]2O)[C@](C)(OC)C[C@@H](C)/C(=N/O)[C@H](C)[C@@H](O)[C@]1(C)O`, the negative logarithm of the IC50 (pIC50) in assay [1] was 4.90; in assay [2], 4.42; in assay [3], 4.37.

For orientation: pIC50 means −log10 of the IC50, conventionally taken in molar units.
